According to patent publication US20240173440A1, “HIGH PURITY COPPER RADIOPHARMACEUTICAL COMPOSITIONS AND DIAGNOSTIC AND THERAPEUTIC USES THEREOF” (Nuclidium AG, priority 2022, published 2024):

Key:
[1] = system: HT-1080.hFAP and HT-1080.wt xenografts; assay: Quantitative biodistribution in HT-1080.hFAP and HT-1080.wt xenografted mice; format: in vivo; conditions: for Biodistribution HT-1080.wt: FAP-negative tumor; for Biodistribution HT-1080.hFAP: FAP-positive tumor
Method: The tumors were allowed to grow to an average volume of 100-200 mm3.
Biodistribution Studies: The xenografted mice were randomized (n=5 per group) and injected intravenously via the tail vein with the ^61Cu-labeled radioligands (100 μL, […], 0.8-1MBq). Mice were euthanized 1h and 4h pi. by CO2 asphyxiation. Organs of interest and blood were collected, rinsed of excess blood, blotted dry, weighed, and counted in a […]. The samples were counted against a suitably diluted aliquot of the injected solution as the standard and the results are expressed as the percentage of the injected activity per gram of tissue (0% I.A./g)+SD.

[2] = Remaining PET activity in the mouse body 4h p.i.; format: in vivo; conditions: mice
Method: PET/CT Imaging: Mice bearing FAP-positive and FAP-negative xenografts were injected intravenously with ^61Cu-labeled radioligands of the present disclosure or ^61Cu-NODAGA-FAPI-46 (100 μL/[…]/6-12 MBq). […] The mice were euthanized by CO2 at 4 hours p.i., and static PET scans were acquired for 30 min.
Remaining PET activity in the mouse body 4h p.i. prior to the 4h scan was determined (Table 36).

HT-1080.hFAP cells = assay: In vitro cellular uptake (cell surface and internalized fractions) in HT-1080.hFAP cells; format: cell-based, human
Method: (§1) The cellular uptake was studied in vitro using intact cells seeded in 6-well plates overnight. On the day of the experiment, the cells were washed and incubated with each of the exemplified [^61Cu]Cu-radiotracer at different time points, either alone or in the presence of a blocking agent to distinguish between specific and non-specific uptake. At each investigated time point, the medium containing the unbound (free) radiotracer was removed, followed by two washing steps with ice-cold phosphate-buffered saline. The cells were then treated 2×5 min with ice-cold glycine solution (0.05 M, pH 2.8) to detach the cell surface-bound radiotracer (acid released). Afterwards, the cells containing the internalized radiotracer were detached with 1 M NaOH at 37° C. and collected for measurement. The amount of specific cell surface-bound and internalized radiotracer is expressed as percentage of the total applied activity, after subtracting the non-specific values.
as §1, with “^61Cu-labeled conjugate” for “of the exemplified [^61Cu]Cu-radiotracer”
The cells were then preconditioned in 360 μL of assay medium (MEM medium without supplements) at 37° C. for 60 min. 40 μL of a 2 nM solution of ^61Cu-labeled radioligand was added and the cells were incubated at 37° C. The cellular uptake was interrupted at different time points (15 min, 1 hour and 4 hours), by washing twice with ice-cold PBS. Cell surface-bound radioligand was obtained by washing cells twice with ice-cold glycine buffer (pH 2.8), followed by a collection of the internalized fraction with 1 M NaOH. The activity in each fraction was measured in a γ-counter (Cobra II).

hFAP = hFAP (Homo sapiens (Human), UniProt Q12884); assay: Saturation binding on isolated HEK-293.hFAP cell membranes; design: Bmax: unit not given here; conditions: 37° C.
hFAP, sequence (Q12884 whole entry): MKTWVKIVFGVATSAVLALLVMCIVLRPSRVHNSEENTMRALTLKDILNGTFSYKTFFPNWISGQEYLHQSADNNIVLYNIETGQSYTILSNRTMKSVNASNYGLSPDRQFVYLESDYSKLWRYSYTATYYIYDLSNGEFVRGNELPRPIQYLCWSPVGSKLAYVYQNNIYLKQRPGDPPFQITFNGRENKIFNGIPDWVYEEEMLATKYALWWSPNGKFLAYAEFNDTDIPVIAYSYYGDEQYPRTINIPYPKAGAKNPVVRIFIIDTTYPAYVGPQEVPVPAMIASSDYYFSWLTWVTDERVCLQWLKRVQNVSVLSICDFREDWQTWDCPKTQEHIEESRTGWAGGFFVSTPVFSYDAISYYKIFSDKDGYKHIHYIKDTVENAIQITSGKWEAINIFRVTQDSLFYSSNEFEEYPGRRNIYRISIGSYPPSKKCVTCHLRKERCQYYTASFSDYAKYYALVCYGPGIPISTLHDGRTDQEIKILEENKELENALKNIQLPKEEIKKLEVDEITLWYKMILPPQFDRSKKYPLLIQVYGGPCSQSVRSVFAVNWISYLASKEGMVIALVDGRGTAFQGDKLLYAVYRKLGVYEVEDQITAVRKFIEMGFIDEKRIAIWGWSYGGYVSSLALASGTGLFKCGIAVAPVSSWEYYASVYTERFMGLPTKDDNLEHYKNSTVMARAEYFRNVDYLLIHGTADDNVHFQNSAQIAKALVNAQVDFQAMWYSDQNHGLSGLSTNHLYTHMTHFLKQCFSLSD
Method: The cells were homogenized using Ultra-Turrax, and the homogenized suspension was centrifuged at 500×g for 10 min at 4° C. The supernatant was collected in centrifuge tubes (Beckman Coulter Inc., Brea, CA, USA). This procedure was then repeated 5 times. The collected supernatant was centrifuged in an ultra-centrifuge (Beckman) at 4° C. for 55 min at 49,000×g. Then, the pellet was re-suspended in 10 mM ice-cold HEPES buffer (pH 7.5), aliquoted, and stored at −80° C. The protein concentration of those membrane suspensions was determined by the Bradford method, BSA as the standard.
Each assay tube contained 170 μL of binding buffer (20 mM HEPES, pH 7.4, containing 4 mM μgCl2, 0.2% BSA, 20 μg/L bacitracin, 20 μg/L PMSF and 200,000 KIU/L aprotinin). The incubation was initiated by adding 30 μL of radioligand solution at 10 times the final concentration and 100 μL of cell membrane suspension to yield 10 μg of protein per well. For the determination of the non-specific binding, 140 μL of the above binding buffer was added along with 30 μL of FAPI-46 to obtain (0.1 mM). Bound fractions were plotted versus the corresponding radioligand concentration at equilibrium. The dissociation constant (KD) and maximal binding capacity (Bmax) values were calculated using GraphPad Software Inc., Prism 7, San Diego, CA, USA (Table 33 and FIG. 21).

[3] = 1 h p.i., HT-1080.hFAP and HT-1080.wt xenografts
[4] = 4 h p.i., HT-1080.hFAP and HT-1080.wt xenografts
[5] = HT-1080.hFAP and HT-1080.wt xenografts
[6] = 15 min, HT-1080.hFAP cells, specific uptake (minus HT-1080.wt)
[7] = 240 min, HT-1080.hFAP cells, specific uptake (minus HT-1080.wt)

CN(CCCN1CCN(C(=O)CCC(C(=O)O)N2CCN3CCN(CC2)CC(=O)[O][61Cu][O]C(=O)C3)CC1)c1ccc2nccc(C(=O)NCC(=O)N3CC(F)(F)C[C@H]3C#N)c2c1 (stereo partly shown) [[^61Cu]Cu-NODAGA-FAPI-46]
Biodistribution Adrenal [1, 3]: 2.2 ± 0.1 % IA/g | Biodistribution Blood [1, 3]: 2.6 ± 0.1 % IA/g | Biodistribution Femur [1, 3]: 6.5 ± 0.4 % IA/g | Biodistribution HT1080.hFAP (FAP-positive tumor) [1, 3]: 8.4 ± 1.4 % IA/g | Biodistribution HT1080.wt (FAP-negative tumor) [1, 3]: 3.1 ± 0.0 % IA/g | Biodistribution Heart [1, 3]: 1.1 ± 0.0 % IA/g | Biodistribution Intestine [1, 3]: 1.0 ± 0.4 % IA/g | Biodistribution Kidney [1, 3]: 1.5 ± 0.1 % IA/g | Biodistribution Liver [1, 3]: 0.9 ± 0.0 % IA/g | Biodistribution Lung [1, 3]: 1.5 ± 0. % IA/g | Biodistribution Muscle [1, 3]: 1.7 ± 0.1 % IA/g | Biodistribution Pancreas [1, 3]: 2.0 ± 0.2 % IA/g | Biodistribution Spleen [1, 3]: 0.7 ± 0.1 % IA/g | Biodistribution Stomach [1, 3]: 1.0 ± 0.1 % IA/g | Biodistribution Adrenal [1, 4]: 2.0 ± 0.2 % IA/g | Biodistribution Blood [1, 4]: 1.5 ± 0.1 % IA/g | Biodistribution Femur [1, 4]: 4.6 ± 0.4 % IA/g | Biodistribution HT1080.hFAP (FAP-positive tumor) [1, 4]: 7.7 ± 0.4 % IA/g | Biodistribution HT1080.wt (FAP-negative tumor) [1, 4]: 2.5 ± 0.2 % IA/g | Biodistribution Heart [1, 4]: 0.7 ± 0.1 % IA/g | Biodistribution Intestine [1, 4]: 0.6 ± 0.2 % IA/g | Biodistribution Kidney [1, 4]: 1.0 ± 0.1 % IA/g | Biodistribution Liver [1, 4]: 0.8 ± 0.2 % IA/g | Biodistribution Lung [1, 4]: 1.0 ± 0.1 % IA/g | Biodistribution Muscle [1, 4]: 1.4 ± 0.2 % IA/g | Biodistribution Pancreas [1, 4]: 1.6 ± 0.1 % IA/g | Biodistribution Spleen [1, 4]: 0.5 ± 0.1 % IA/g | Biodistribution Stomach [1, 4]: 0.6 ± 0.1 % IA/g | accumulation in tumor and target-positive tissues [1, 5]: high accumulation in FAP-positive (HT-1080.hFAP) tumor and murine-FAP-positive tissues | retention in the body (remaining PET activity) [2]: highest retention in the body | Cell surface fraction (HT-1080.hFAP cells; [6]): 0.9 ± 0.3 % of the applied activity | Internalized fraction (HT-1080.hFAP cells; [7]): 50.0 ± 6.0 % of the applied activity | Cell surface fraction (HT-1080.hFAP cells; Time Point 15 min, 0.2 nM): 0.9 ± 0.3 percentage of the total applied activity | Internalized fraction (HT-1080.hFAP cells; Time Point 240 min, 0.2 nM): 50.0 ± 6.0 percentage of the total applied activity | Bmax (hFAP): 9.0-10.3

CN(C(=O)CCC(=O)N1CCN(C(=O)CC[C@H](C(=O)O)N2CCN3CCN(CC2)CC(=O)[O][61Cu][O]C(=O)C3)CC1)c1ccc2nccc(C(=O)NCC(=O)N3CC(F)(F)C[C@H]3C#N)c2c1 [[^61Cu]Cu-NODAGA-F4]
Biodistribution Heart ([1]; 1 hour p.i.): 0.6 ± 0.0 % I.A./g | Biodistribution Intestine ([1]; 1 hour p.i.): 0.5 ± 0.2 % I.A./g | Biodistribution Liver ([1]; 1 hour p.i.): 0.6 ± 0.1 % I.A./g | Biodistribution Lung ([1]; 1 hour p.i.): 0.9 ± 0.1 % I.A./g | Biodistribution Muscle ([1]; 1 hour p.i.): 0.8 ± 0.2 % I.A./g | Biodistribution Spleen ([1]; 1 hour p.i.): 0.4 ± 0.0 % I.A./g | Biodistribution Stomach ([1]; 1 hour p.i.): 0.5 ± 0.0 % I.A./g | Biodistribution Adrenal [1, 3]: 1.1 ± 0.2 % IA/g | Biodistribution Blood [1, 3]: 1.4 ± 0.1 % IA/g | Biodistribution Femur [1, 3]: 3.2 ± 0.8 % IA/g | Biodistribution HT1080.hFAP (FAP-positive tumor) [1, 3]: 7.4 ± 1.6 % IA/g | Biodistribution HT1080.wt (FAP-negative tumor) [1, 3]: 1.7 ± 0.2 % IA/g | Biodistribution Heart [1, 3]: 0.6 ± 0.0 % IA/g | Biodistribution Intestine [1, 3]: 0.5 ± 0.2 % IA/g | Biodistribution Kidney [1, 3]: 1.8 ± 0.2 % IA/g | Biodistribution Liver [1, 3]: 0.6 ± 0.1 % IA/g | Biodistribution Lung [1, 3]: 0.9 ± 0.1 % IA/g | Biodistribution Muscle [1, 3]: 0.8 ± 0.2 % IA/g | Biodistribution Pancreas [1, 3]: 1.1 ± 0.1 % IA/g | Biodistribution Spleen [1, 3]: 0.4 ± 0.0 % IA/g | Biodistribution Stomach [1, 3]: 0.5 ± 0.0 % IA/g | Biodistribution Adrenal ([1]; 4 hours p.i.): 0.5 ± 0.1 % I.A./g | Biodistribution Blood ([1]; 4 hours p.i.): 0.4 ± 0.1 % I.A./g | Biodistribution Heart ([1]; 4 hours p.i.): 0.2 ± 0.0 % I.A./g | Biodistribution Intestine ([1]; 4 hours p.i.): 0.3 ± 0.1 % I.A./g | Biodistribution Liver ([1]; 4 hours p.i.): 0.4 ± 0.0 % I.A./g | Biodistribution Lung ([1]; 4 hours p.i.): 0.3 ± 0.0 % I.A./g | Biodistribution Muscle ([1]; 4 hours p.i.): 0.4 ± 0.1 % I.A./g | Biodistribution Pancreas ([1]; 4 hours p.i.): 0.4 ± 0.1 % I.A./g | Biodistribution Spleen ([1]; 4 hours p.i.): 0.2 ± 0.0 % I.A./g | Biodistribution Stomach ([1]; 4 hours p.i.): 0.2 ± 0.0 % I.A./g | Biodistribution Adrenal [1, 4]: 0.5 ± 0.1 % IA/g | Biodistribution Blood [1, 4]: 0.4 ± 0.1 % IA/g | Biodistribution Femur [1, 4]: 1.2 ± 0.1 % IA/g | Biodistribution HT1080.hFAP (FAP-positive tumor) [1, 4]: 3.0 ± 0.8 % IA/g | Biodistribution HT1080.wt (FAP-negative tumor) [1, 4]: 0.6 ± 0.0 % IA/g | Biodistribution Heart [1, 4]: 0.2 ± 0.0 % IA/g | Biodistribution Intestine [1, 4]: 0.3 ± 0.1 % IA/g | Biodistribution Kidney [1, 4]: 1.1 ± 0.1 % IA/g | Biodistribution Liver [1, 4]: 0.4 ± 0.0 % IA/g | Biodistribution Lung [1, 4]: 0.3 ± 0.0 % IA/g | Biodistribution Muscle [1, 4]: 0.4 ± 0.1 % IA/g | Biodistribution Pancreas [1, 4]: 0.4 ± 0.1 % IA/g | Biodistribution Spleen [1, 4]: 0.2 ± 0.0 % IA/g | Biodistribution Stomach [1, 4]: 0.2 ± 0.0 % IA/g | Biodistribution HT-1080.wt ([1]; 1 hour p.i.): 1.7 ± 0.2 % I.A./g | Biodistribution HT-1080.wt ([1]; 4 hours p.i.): 0.6 ± 0.0 % I.A./g | Biodistribution HT-1080.hFAP ([1]; 1 hour p.i.): 7.4 ± 1.6 % I.A./g | Biodistribution HT-1080.hFAP ([1]; 4 hours p.i.): 3.0 ± 0.8 % I.A./g | accumulation in tumor and target-positive tissues [1, 5]: high accumulation in FAP-positive (HT-1080.hFAP) tumor and murine-FAP-positive tissues | retention in the body (remaining PET activity) [2]: lowest value | Cell surface fraction (HT-1080.hFAP cells; [6]): 1.0 ± 0.7 % of the applied activity | Cell surface fraction (HT-1080.hFAP cells; [7]): 0.9 ± 0.6 % of the applied activity | Cell surface fraction (HT-1080.hFAP cells; Time Point 15 min, 0.2 nM): 1.0 ± 0.7 percentage of the total applied activity | Cell surface fraction (HT-1080.hFAP cells; Time Point 240 min, 0.2 nM): 0.9 ± 0.6 percentage of the total applied activity | Bmax (hFAP): 9.1-9.8
